13 molecules from patent US12102648B2, “Orally-bioavailable nucleoside analogs” (priority 2021, dated 2024) can be followed below.

Where two headings read alike, the source gives them in different places.

The data set in a line: in vitro. In kind it is in vitro ADME. The settings on record: human. The procedure, abridged: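 Caco-2 monolayers cultured 19 days on inserts (TEER >600 […]); bidirectional A-to-B and B-to-A transport at 37° C over 90 min, samples quantified by LC/MS/MS. Papp, efflux ratio and recovery calculated; ER >2 flags potential efflux substrates.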
[1] abbreviates: Caco-2 monolayer, apical to basolateral, 90-minute incubation, read-out: Papp, A-B.
Setting [2] is: Caco-2 monolayer, basolateral to apical, 90-minute incubation, read-out: Papp, B-A.
[3] abbreviates: Caco-2 monolayer, ER>2 indicates potential efflux transporter substrate, read-out: ER (efflux ratio).

In general, Papp A→B refers to how fast a substance crosses the layer from the apical side. Usually Papp B→A stands for the apparent permeability from the basolateral to the apical side of a cell layer. As for `CC(=O)Nc1ncnn2c([C@]3(C#N)O[C@H](COC(=O)CC4CCCCC4)[C@@H](OC(=O)[C@@H](N)C(C)C)[C@H]3O)ccc12` [Compound 348, (2R,3S,4R,5R)-5-(4-acetamidopyrrolo[2,1-f][1,2,4]triazin-7-yl)-5-cyano-2-((2-cyclohexylacetoxy)methyl)-4-hydroxytetrahydrofuran-3-yl L-valinate], under “Caco-2”, the apical-to-basolateral permeability (Papp A→B) at 90 min came out at 0.43 ×10⁻⁶ cm/s, the Papp B→A at 90 min is 13 ×10⁻⁶ cm/s and the efflux ratio at 90 min is 30.

In the case of `CC(C)C(=O)Nc1ncnn2c([C@]3(C#N)O[C@H](COC(=O)CC4CCCCC4)[C@@H](OC(=O)[C@@H](N)C(C)C)[C@H]3O)ccc12` [Compound 349, (2R,3S,4R,5R)-5-cyano-2-((2-cyclohexylacetoxy)methyl)-4-hydroxy-5-(4-isobutyramidopyrrolo[2,1-f][1,2,4]triazin-7-yl)tetrahydrofuran-3-yl L-valinate], where the note is “Caco-2”, the Papp A→B at 90 min turned out to be 1.9 ×10⁻⁶ cm/s, the basolateral-to-apical permeability (Papp B→A) at 90 min turned out to be 10 ×10⁻⁶ cm/s and the efflux ratio at 90 min came to 5.6.

Consider `CCCC(=O)Nc1ncnn2c([C@]3(C#N)O[C@H](COC(=O)CC4CCCCC4)[C@@H](OC(=O)[C@@H](N)C(C)C)[C@H]3O)ccc12` [Compound 350, (2R,3S,4R,5R)-5-(4-butyramidopyrrolo[2,1-f][1,2,4]triazin-7-yl)-5-cyano-2-((2-cyclohexylacetoxy)methyl)-4-hydroxytetrahydrofuran-3-yl L-valinate], for which, for the setting “Caco-2”, the Papp A→B at 90 min came to 1.9 ×10⁻⁶ cm/s, the Papp B→A at 90 min was 6.9 ×10⁻⁶ cm/s and the efflux ratio at 90 min turned out to be 4.3.

Regarding `CC(C)[C@H](N)C(=O)O[C@H]1[C@@H](OC(=O)[C@@H](N)C(C)C)[C@](C#N)(c2ccc3c(N)ncnn23)O[C@@H]1COC(=O)Cc1ccccc1` [Compound 351, (2R,3R,4R,5R)-2-(4-aminopyrrolo[2,1-f][1,2,4]triazin-7-yl)-2-cyano-5-((2-phenylacetoxy)methyl)tetrahydrofuran-3,4-diyl (2S,2'S)-bis(2-amino-3-methylbutanoate)], the Papp A→B at 90 min under setting [1] is 0.17 ×10⁻⁶ cm/s. Besides, the apparent permeability from basolateral to apical (Papp B→A) at 90 min under setting [2] turned out to be 0.92 ×10⁻⁶ cm/s. For the same molecule, the efflux ratio at 90 min under setting [3] came out at 5.5.

In the case of `N#C[C@@]1(c2ccc3c(NC(=O)[C@@H](N)Cc4ccc(F)cc4)ncnn23)O[C@H](COC(=O)CC2(N)CCCCC2)[C@@H](O)[C@H]1O` [Compound 352, ((2R,3S,4R,5R)-5-(4-((S)-2-amino-3-(4-fluorophenyl)propanamido)pyrrolo[2,1-f][1,2,4]triazin-7-yl)-5-cyano-3,4-dihydroxytetrahydrofuran-2-yl)methyl 2-(1-aminocyclohexyl)acetate], for the setting “Caco-2”, the Papp A→B at 90 min is 0.25 ×10⁻⁶ cm/s, the Papp B→A at 90 min stood at 1.4 ×10⁻⁶ cm/s and the efflux ratio at 90 min amounted to 5.7.

As for `CCCC(=O)Nc1ncnn2c([C@]3(C#N)O[C@H](COC(=O)CC4(N)CCCCC4)[C@@H](O)[C@H]3O)ccc12` [Compound 354, ((2R,3S,4R,5R)-5-(4-butyramidopyrrolo[2,1-f][1,2,4]triazin-7-yl)-5-cyano-3,4-dihydroxytetrahydrofuran-2-yl)methyl 2-(1-aminocyclohexyl)acetate], where the note is “Caco-2”, the Papp A→B at 90 min turned out to be 10 ×10⁻⁶ cm/s, the apparent permeability from basolateral to apical (Papp B→A) at 90 min worked out at 3 ×10⁻⁶ cm/s and the efflux ratio at 90 min came out at 0.29.

Consider `CC(=O)OCOC(=O)Nc1ncnn2c([C@]3(C#N)O[C@H](COC(=O)Cc4ccccc4)[C@@H](OC(=O)[C@@H](N)C(C)C)[C@H]3O)ccc12` [Compound 355, (2R,3S,4R,5R)-5-(4-(((acetoxymethoxy)carbonyl)amino)pyrrolo[2,1-f][1,2,4]triazin-7-yl)-5-cyano-4-hydroxy-2-((2-phenylacetoxy)methyl)tetrahydrofuran-3-yl L-valinate], for which the Papp A→B at 90 min under setting [1] worked out at 1.5 ×10⁻⁶ cm/s. For the same molecule, the basolateral-to-apical permeability (Papp B→A) at 90 min under setting [2] is 0.49 ×10⁻⁶ cm/s. Also, the efflux ratio at 90 min under setting [3] worked out at 0.33.

As to `CC(C)[C@H](N)C(=O)O[C@H]1[C@@H](OC(=O)[C@@H](N)C(C)C)[C@](C#N)(c2ccc3c(N)ncnn23)O[C@@H]1COC(=O)CC1CCCCC1` [Compound 356, (2R,3R,4R,5R)-2-(4-aminopyrrolo[2,1-f][1,2,4]triazin-7-yl)-2-cyano-5-((2-cyclohexylacetoxy)methyl)tetrahydrofuran-3,4-diyl (2S,2'S)-bis(2-amino-3-methylbutanoate)], where the note is “Caco-2”, the Papp A→B at 90 min came out at 0.6 ×10⁻⁶ cm/s, the apparent permeability from basolateral to apical (Papp B→A) at 90 min amounted to 3.6 ×10⁻⁶ cm/s and the efflux ratio at 90 min came to 6.

On to `CCCC(=O)Nc1ncnn2c([C@]3(C#N)O[C@H](COC(=O)[C@@H](N)C(C)C)[C@@H](OC(=O)CC)[C@H]3O)ccc12` [Compound 357, ((2R,3S,4R,5R)-5-(4-butyramidopyrrolo[2,1-f][1,2,4]triazin-7-yl)-5-cyano-4-hydroxy-3-(propionyloxy)tetrahydrofuran-2-yl)methyl L-valinate], for which, where the note is “Caco-2”, the apical-to-basolateral permeability (Papp A→B) at 90 min turned out to be 3.1 ×10⁻⁶ cm/s, the Papp B→A at 90 min was determined as 6 ×10⁻⁶ cm/s and the efflux ratio at 90 min turned out to be 1.9.

For the molecule `CC(=O)OCOC(=O)Nc1ncnn2c([C@]3(C#N)O[C@H](COC(=O)CC4CCCCC4)[C@@H](OC(=O)[C@@H](N)C(C)C)[C@H]3O)ccc12` [Compound 358, (2R,3S,4R,5R)-5-(4-(((acetoxymethoxy)carbonyl)amino)pyrrolo[2,1-f][1,2,4]triazin-7-yl)-5-cyano-2-((2-cyclohexylacetoxy)methyl)-4-hydroxytetrahydrofuran-3-yl L-valinate], for the setting “Caco-2”, the Papp A→B at 90 min was found to be 0.3 ×10⁻⁶ cm/s, the Papp B→A at 90 min came out at 0.1 ×10⁻⁶ cm/s and the efflux ratio at 90 min is 0.33.

Consider `CC(C)[C@H](N)C(=O)O[C@H]1[C@@H](O)[C@](C#N)(c2ccc3c(NC(=O)OCOC(=O)C(C)(C)C)ncnn23)O[C@@H]1COC(=O)Cc1ccccc1` [Compound 360, (2R,3S,4R,5R)-5-cyano-4-hydroxy-2-((2-phenylacetoxy)methyl)-5-(4-((((pivaloyloxy)methoxy)carbonyl)amino)pyrrolo[2,1-f][1,2,4]triazin-7-yl)tetrahydrofuran-3-yl L-valinate], for which the Papp A→B at 90 min under setting [1] turned out to be 0.49 ×10⁻⁶ cm/s. In addition, the Papp B→A at 90 min under setting [2] turned out to be 0.16 ×10⁻⁶ cm/s. In addition, the efflux ratio at 90 min under setting [3] stood at 0.33.

In the case of `CC(C)[C@H](N)C(=O)O[C@H]1[C@@H](O)[C@](C#N)(c2ccc3c(NC(=O)OCOC(=O)C(C)(C)C)ncnn23)O[C@@H]1COC(=O)CC1CCCCC1` [Compound 361, (2R,3S,4R,5R)-5-cyano-2-((2-cyclohexylacetoxy)methyl)-4-hydroxy-5-(4-((((pivaloyloxy)methoxy)carbonyl)amino)pyrrolo[2,1-f][1,2,4]triazin-7-yl)tetrahydrofuran-3-yl L-valinate], where the note is “Caco-2”, the apparent permeability from apical to basolateral (Papp A→B) at 90 min amounted to 0.15 ×10⁻⁶ cm/s, the Papp B→A at 90 min turned out to be 0.05 ×10⁻⁶ cm/s and the efflux ratio at 90 min came to 0.33.

`CCC(=O)O[C@H]1[C@@H](O)[C@](C#N)(c2ccc3c(NC(=O)C(C)C)ncnn23)O[C@@H]1COC(=O)[C@@H](N)C(C)C` [Compound 362, ((2R,3S,4R,5R)-5-cyano-4-hydroxy-5-(4-isobutyramidopyrrolo[2,1-f][1,2,4]triazin-7-yl)-3-(propionyloxy)tetrahydrofuran-2-yl)methyl L-valinate]: for the setting “Caco-2”, the apical-to-basolateral permeability (Papp A→B) at 90 min is 4.6 ×10⁻⁶ cm/s, the Papp B→A at 90 min worked out at 6.7 ×10⁻⁶ cm/s and the efflux ratio at 90 min is 1.5.
